# Values quoted from earlier work, collected in patent publication US8410056B2, “Pro-oxidant anti-cancer compounds” (priority 2006, dated 2013).
# Columns and labels:
# LNCaP, PC-3 = conditions: Shiau et al, 2006; cited from earlier work
# B16(F10) = conditions: B16(F10); He et al, 1997; cited from earlier work
# MDA-MB-435 = conditions: cited from earlier work
# MCF7 = conditions: cited from earlier work
# [1] = system: neoplastic + SA mammary epithelial cells; conditions: cited from earlier work
SMILES,"IC50 (LNCaP, PC-3)",IC50 (B16(F10)),IC50 (MDA-MB-435),IC50 (MCF7),IC50 [1]
Cc1c(C)c2c(c(C)c1OC(=O)CCC(=O)O)CCC(C)(C)O2 [Compound 46],> 100 µM,,,,
"CC(C)=CCC/C(C)=C/CC/C(C)=C/CC[C@]1(C)CCc2c(C)c(O)c(C)c(C)c2O1 [Compound 53, α-tocotrienol]",,110 µM,210 µM,14 µM,
"CC(C)=CCC/C(C)=C/CC/C(C)=C/CC[C@]1(C)CCc2cc(O)c(C)c(C)c2O1 [Compound 56, γ-tocotrienol]",,20 µM,,,4 µM
